Values joined by “and” are separate entries in the source; they are usually repeats but may differ in a detail not shown here. Equal values may be shown once.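 Method: 48-hour compound exposure of cells in 96-well plates, five concentrations, linear interpolation of endpoints. Here, GI50 denotes the concentration required for 50% inhibition of growth. TGI: total growth inhibition.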
Columns and labels:
Assay in all cases: inhibition of tumour cell growth, NCI panel, 48 h
[1] = test system: DMS 273 small cell lung
[2] = test system: RXF-631 renal
[3] = test system: XF 498 CNS
[4] = test system: M19-MEL melanoma
[5] = test system: MDA-MB-435
[6] = test system: MCF7 breast
[7] = test system: MDA-N

SMILES: NCCSSCc1ccccc1CSSCCN
- TGI [1]: > 100 µM
- TGI [2]: > 100 µM
- TGI [3]: > 100 µM
- TGI [4]: > 100 µM

SMILES: COc1ccccc1Nc1cc(O)c2c(=O)cc(-c3ccccc3)oc2c1
- GI50 [5]: 0.36 µM
- TGI [5]: 2.03 µM
- GI50 [6]: 1.63 µM
- TGI [6]: > 100 µM

SMILES: COc1cc(/C=C/c2cc(/C=C/c3ccc(O)c(OC)c3)n(C(=O)c3ccc(Cl)cc3)n2)ccc1O
- GI50 [5]: 0.449 µM
- TGI [5]: 10.7 µM
- GI50 [6]: 2.43 µM
- TGI [6]: 16 µM

SMILES: C=CCNC(=O)NCCCCC(NC(C)=O)C(=O)NCc1ccccc1 (stereo unspecified)
- TGI [1]: > 100 µM
- TGI [3]: > 100 µM
- TGI [4]: > 100 µM

SMILES: CC(C)(C)C(=O)OCOP(=O)(NCc1ccccc1)C1CCCN(O)C1=O (stereo unspecified)
- GI50 [5]: 4.09 µM
- TGI [5]: 71.9 µM
- GI50 [6]: 2.41 µM
- TGI [6]: 11.1 µM

SMILES: O=C(CSc1nc2c(n1Nc1ccccc1)-c1ccccc1SC2)Nc1nc(-c2ccc(Cl)cc2)cs1
- GI50 [6]: > 100 µM
- TGI [6]: > 100 µM

SMILES: Cc1c(C)c2ccc3oc4ccccc4c3c2oc1=O
- TGI [2]: > 100 µM
- TGI [4]: > 100 µM

SMILES: O=C(NCCCCN1CCOCC1)c1cc2ccccc2o1
- GI50 [5]: > 100 µM
- TGI [5]: > 100 µM
- GI50 [6]: > 100 µM
- TGI [6]: > 100 µM

SMILES: Cc1cnc2n1S(=O)(=O)c1cc(C(=O)Nc3cccc4nsnc34)c(Cl)cc1S2
- GI50 [5]: 22.4 µM
- TGI [5]: 56.5 µM
- GI50 [6]: 16.4 µM
- TGI [6]: 32.2 µM

SMILES: CN(CCS(=O)(=O)N1C(=O)C2CCCN2C(=O)[C@@H]1Cc1ccccc1)C(=O)OCc1ccccc1 (stereo partly specified)
- TGI [2]: > 100 µM
- TGI [4]: > 100 µM

SMILES: O=C(O)CSc1n[nH]c(=O)[nH]c1=O
- TGI [7]: > 100 µM
- TGI [5]: > 100 µM
- TGI [6]: > 100 µM

SMILES: CCc1ccc(Oc2c(-c3ccc(OCc4ccc(Cl)cc4)cc3O)n[nH]c2C(F)(F)F)cc1
- GI50 [5]: 1.8 µM
- TGI [5]: 3.49 µM
- GI50 [6]: 2 µM
- TGI [6]: 5.65 µM

SMILES: C=CSCCC(N)C(=O)O (stereo unspecified)
- TGI [1]: > 100 µM
- TGI [2]: > 100 µM
- TGI [3]: > 100 µM
- TGI [4]: > 100 µM

SMILES: O=C1[C@H]2ON(c3ccccc3)C(c3ccc([N+](=O)[O-])cc3)[C@H]2C(=O)N1c1ccc(Cc2ccc(N3C(=O)[C@@H]4ON(c5ccccc5)C(c5ccc([N+](=O)[O-])cc5)[C@@H]4C3=O)cc2)cc1 (stereo partly specified)
- TGI [1]: > 100 µM
- TGI [2]: > 100 µM
- TGI [4]: > 100 µM

SMILES: O=c1c2c(nc3n1CCS3)[nH]c1cc([N+](=O)[O-])ccc12
- GI50 [5]: > 100 µM
- TGI [5]: > 100 µM
- GI50 [6]: 7.57 µM
- TGI [6]: 30.9 µM

SMILES: Oc1ccc(C=Nc2ccccc2O)cc1
- TGI [7]: 33.8 µM
- TGI [5]: 33 µM
- TGI [6]: 90.8 µM

SMILES: O=C1NC(=C(Cl)Cl)/C(=N/S(=O)(=O)N2CCCCC2)N1
- GI50 [5]: 1.98 µM
- TGI [5]: 4.21 µM
- GI50 [6]: 2.87 µM
- TGI [6]: > 100 µM

SMILES: C=C(c1ccc(OC)c(/C=C/C(=O)c2ccc3c(c2)OCO3)c1)c1cc(OC)c(OC)c(OC)c1
- GI50 [6]: 0.913 µM
- TGI [6]: > 100 µM

SMILES: Fc1ccc(-c2c(-c3ccncc3)nc3n2CCS3)cc1
- GI50 [5]: > 25 µM
- TGI [5]: > 25 µM
- GI50 [6]: > 25 µM
- TGI [6]: > 25 µM

SMILES: COc1cccc2c1c1ccc3c(c1n2C)C(=O)C=CC3=O
- TGI [1]: 32.2 µM
- TGI [3]: 29.4 µM
- TGI [4]: 2.52 µM

SMILES: Cc1nc2sccn2c1C(=O)NN
- TGI [1]: > 100 µM
- TGI [2]: > 100 µM
- TGI [3]: > 100 µM
- TGI [4]: > 100 µM

SMILES: CC(C)C[C@H](NC(=O)CNC(=O)c1cc(Cl)ccc1Cl)B(O)O
- GI50 [6]: < 0.0196 µM
- TGI [6]: > 52.4 µM

SMILES: Cc1nc([N+](=O)[O-])cn1-c1nc2ccccn2c1[N+](=O)[O-]
- TGI [7]: > 100 µM
- TGI [5]: > 100 µM
- TGI [6]: > 100 µM

SMILES: COc1ccc2ncn(-c3cc(O[C@H](C)c4ccccc4C(F)(F)F)c(C(N)=O)s3)c2c1
- GI50 [5]: 0.0466 µM
- TGI [5]: 0.155 µM
- GI50 [6]: 0.0637 µM
- TGI [6]: 13 µM

SMILES: O=C(O)c1cc(-c2ccc3cc4c(cc3c2)OCO4)nc2ccccc12
- TGI [7]: > 100 µM
- TGI [5]: > 100 µM
- TGI [6]: > 100 µM

SMILES: NNC(=O)C(=O)N/N=C(\CCCC(=O)Nc1ccc(Cl)cc1)CC(=O)c1ccc(F)cc1
- TGI [2]: > 100 µM
- TGI [3]: > 100 µM
- TGI [4]: > 100 µM

SMILES: CCN(CC)CCCNc1nccc2c(C)c3c(cc12)c1cnccc1n3C
- TGI [1]: 0.181 µM
- TGI [3]: 0.923 µM
- TGI [4]: 2.67 µM

SMILES: CC(C)(C)C1=CC(=C(P(=O)(O)O)P(=O)(O)O)C=C(C(C)(C)C)C1=O
- TGI [1]: > 50 µM
- TGI [2]: > 50 µM
- TGI [4]: > 50 µM

SMILES: Cc1onc(-c2ccccc2)c1C(=O)N/N=C/c1cc(Cl)cc(Cl)c1O
- GI50 [5]: 6.39 µM
- TGI [5]: > 100 µM
- GI50 [6]: 3.18 µM
- TGI [6]: > 100 µM

SMILES: CC1=N/C(=C/c2ccc3c(c2)OCO3)C(=O)O1
- TGI [1]: > 100 µM
- TGI [2]: > 100 µM
- TGI [3]: > 100 µM
- TGI [4]: > 100 µM

SMILES: CC(=O)Nc1ccc(/C=C/C(=O)c2sc(-c3cccnc3)nc2C)cc1
- TGI [1]: > 100 µM
- TGI [4]: > 100 µM

SMILES: COC(=O)[C@@H]1c2cc3c(c(O)c2[C@@H](OC2OC(C)C(OC)C(C)(OC)C2OC)C[C@]1(C)O)C(=O)c1c(O)cc2c(c1C3=O)O[C@H]1O[C@]2(C)[C@H](O)[C@@H](N(C)C)[C@@H]1O (stereo partly specified)
- TGI [7]: 0.179 µM
- TGI [5]: 0.188 µM
- TGI [1]: 0.0282 µM
- TGI [4]: 0.0156 µM and 0.0185 µM

SMILES: O=C(CCC(=O)Nc1ccc(Cl)c(Cl)c1)Cc1nc2ccccc2o1
- TGI [1]: > 100 µM
- TGI [2]: > 100 µM
- TGI [4]: > 100 µM

SMILES: C=C[C@@H](C)[C@]1(C(=O)OC)CCCC12OCCO2
- TGI [1]: > 100 µM
- TGI [3]: > 100 µM
- TGI [4]: > 100 µM

SMILES: N#C/C(=C\c1cc(O)cc(O)c1)C(N)=O
- TGI [1]: > 100 µM
- TGI [2]: > 100 µM
- TGI [3]: > 100 µM
- TGI [4]: > 100 µM

SMILES: C[C@@H](Oc1cc(-n2cnc3ccc(OC4CCN(C)CC4)cc32)sc1C(N)=O)c1ccccc1Cl
- GI50 [5]: 0.00549 µM
- TGI [5]: 0.0159 µM
- GI50 [6]: 0.00884 µM
- TGI [6]: 3.92 µM

SMILES: COc1ccc(Nc2nc3cc(N)cc(N)c3nc2-c2ccccc2)cc1
- GI50 [7]: 21.6 µM
- TGI [7]: 36 µM
- GI50 [5]: 16.5 µM
- TGI [5]: 30.1 µM
- GI50 [6]: 14.9 µM
- TGI [6]: 28.1 µM

SMILES: C=CCC1(CN(C)C)CC/C(=C\c2ccc(OC)cc2)C1=O (stereo unspecified)
- TGI [1]: > 100 µM
- TGI [2]: 49 µM
- TGI [4]: > 100 µM

SMILES: CCOC(=O)c1cc(C(=O)c2ccc(OC)cc2)n2ccc(/C=C/c3cc[n+](CC(=O)c4ccc(OC)cc4)cc3)cc12
- GI50 [6]: 1.51 µM
- TGI [6]: 3.56 µM
